This experiment concerns the target Neuropeptide Y receptor type 2 (Homo sapiens) (UniProt P49146). The experiment in a line: IC50 of human NPY-Y2 blockers – cell-based, dose response (AID 1272). Particulars: NPY-Y2 expressing cells, antagonist inhibition read-out.

Calls of active or inactive are those of the source. No rule for the calls is given here. Bounds are passed on as bounds.

What is called IC50 is the concentration that gives 50% inhibition.

Sequence of Neuropeptide Y receptor type 2 (Homo sapiens) (P49146 whole entry, looked up): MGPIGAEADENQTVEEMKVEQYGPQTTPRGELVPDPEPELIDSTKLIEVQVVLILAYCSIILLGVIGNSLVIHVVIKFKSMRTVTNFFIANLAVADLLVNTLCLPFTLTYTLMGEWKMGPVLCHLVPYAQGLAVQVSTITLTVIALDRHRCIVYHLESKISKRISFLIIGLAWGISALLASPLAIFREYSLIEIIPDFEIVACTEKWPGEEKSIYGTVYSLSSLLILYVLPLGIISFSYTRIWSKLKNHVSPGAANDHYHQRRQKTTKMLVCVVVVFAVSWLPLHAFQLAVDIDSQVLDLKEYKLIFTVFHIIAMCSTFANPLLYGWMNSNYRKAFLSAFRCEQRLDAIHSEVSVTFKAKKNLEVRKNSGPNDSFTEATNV

Turning to `Cc1cccc(CSCCNC(=O)COc2ccc(Cl)cc2)c1`, the IC50 is < 35 µM (inactive).

The record behind these values is PubChem BioAssay AID1272 (The Scripps Research Institute Molecular Screening Center, 2008).
